In patent US6960613B2, “Treatment of neurotic disorders” (H. Lundbeck A/S, priority 1999, dated 2005):

Experiments:
[1] = test system: footshock-induced ultrasonic vocalisation; assay: Footshock-induced ultrasonic vocalisation test in adult rats; format: in vivo, rat; settings: male Wistar rats, drug given 30 min before test, four 1.0 mA footshocks
From the text: The Footshock-induced Vocalisation Test in Adult Rats. The footshock-induced vocalisation test in adult rats (described in detail in Sánchez C., Effect of serotonergic drugs on footshock-induced ultrasonic vocalization in adult male rats. Behav. Pharmacol. 1993; 4:267-277) is a test for anxiolytic and anti-panic effects. Male rats (Wistar WU, Charles River, Germany), weighing 150-175 g at the beginning of the study were used. Briefly, test cages (22 cm×22 cm×22 cm) made of grey Perspex and equipped with a metal grid floor were used. Footshocks were delivered from a two pole shocker and a microphone sensitive to ultrasounds in the range of 20-30 kHz was placed in the centre of the lid of the test cage. The ultrasounds were sent from the microphone to a preamplifier and converted from AC signals to DC signals in a signal rectifier. The accumulated time, in which the voltage of the rectified signal was larger than the voltage of a previously determined threshold level, was recorded. Twenty-four hours before the first test session the animals were primed. A rat was placed in each test cage and received, immediately thereafter, four 1.0 mA inescapable footshocks each of a duration of 10 sec and with an intershock interval of 5 sec. The animals were left in the test cage for 6 min after the last shock. […] The total time spent on vocalisation was recorded. […]

[2] = test system: schedule-induced polydipsia (water intake); assay: Schedule-induced polydipsia in rats; format: in vivo, rat; settings: male wistar rats, oral 60 min prior to testing; Citalopram 40 mg/kg, Lu 26-054 20 mg/kg
From the text: Schedule-induced Polydipsia Food deprived rats exposed to a procedure in which food is delivered intermittently will drink large amounts of water if given the opportunity to do so. This behavioural phenomenon is called schedule-induced polydipsia and can be considered as an excessive expression of a normal behaviour. Schedule-induced polydipsia is regarded as a model of obsessive-compulsive disorder (Woods et al. 1993). Male wistar rats (Møllegard) housed in pairs and kept on a food-restricted diet (80% of normal body weight) for 2 weeks before the start of testing and throughout the duration of testing. To induce polydipsia rats were placed in test chambers where a pellet dispenser automatically dispensed one 60 mg food pellet every 60 seconds. Water was available at all times in the test chamber. Rats were tested 4-5 times per week, after 3-4 weeks training 70% of the rats were drinking >10 ml per 30 min test session. Once the rats had attained a steady drinking level compounds could be tested. Citalopram (40 mg/kg) or Lu 26-054 (20 mg/kg) were administered orally 60 min prior to testing and at 10:00 on the non-test days. The water intake was presented as a percentage of the pre-dosing (baseline) level.

[3] = test system: mice black and white box behaviour; assay: Black and White Box Test in mice; format: in vivo, mouse; settings: male mice, pretreatment time 30 min, test duration 5 min
Description: Black and White Box Test This is a test for anxiolytic effects. The test model is further described in Sánchez, C. (1995) Pharmacol. Toxicol. 77, 71-78. Male mice (Lundbeck strain, Charles River, Germany) weighing 30-35 g were housed in groups of 4 in macrolon cages type II under a reversed 12 h day/night cycle (lights off 7 p.m.). The mice were adapted to the reversed light/dark cycle for at least 3 weeks prior to testing. The room temperature (21±2° C.), relative humidity (55±5%), and air exchange (16 times per h) were automatically controlled. The animals had free access to commercial food pellets and water. The test box used was designed as described by Sánchez (1995) (supra). […] The lower row of photocells (2 cm above cage floor) detected horizontal locomotor activity (crossing, entries, and time in each compartment), whereas the upper row of photocells (5 cm above cage floor) detected rearing activity. The accumulated data for 1 min intervals were recorded from 4 test boxed simultaneously and stored in a Paradox data base. […] The test duration was 5 min and the number of rears and line crossings between squares in both the black and the white compartment, number of entries into the black compartment and time spent in the white compartment were assessed.

Row | Compound | maximum effect, inhibition of vocalisation [1] | water intake (percentage of pre-dosing baseline level) [2] | inhibition of vocalisation [1] | effect in black and white box model [3]
1 | CN(C)CCCC1(c2ccc(F)cc2)OCc2cc(C#N)ccc21 (racemic) [citalopram, reference compound] | 60-70% | without effect |  | 
2 | CN(C)CCC[C@@]1(c2ccc(F)cc2)OCc2cc(C#N)ccc21 [escitalopram, (S)-1-[3-(dimethyl-amino)propyl]-1-(4-fluorophenyl)-1,3-dihydro-5-isobenzofurancarbonitrile] |  | significant reduction in water intake | able to inhibit vocalisation completely | prominent effects
